According to patent US9464055B2, “Quinoline derivatives useful as CB-1 inverse agonists” (JANSSEN PHARMACEUTICA NV, priority 2014, dated 2016):

Biological target: T1, Human CB2R (Cannabinoid receptor 2) (Homo sapiens, UniProt P34972)
T1 construct: host or cells: HEK-293
Assay: CB-2 in vitro cAMP (HTRF) functional assay
Format: cell-based
Conditions: mean where tested more than once
Excerpt: CB1 and CB2 receptors are Gi-coupled GPCR. Activation of CB1 and CB2 receptors results in a decrease in cAMP production. An inverse agonist of the CB1 or CB2 receptor results in the opposite effect, an increase of cAMP production. The principle of this assay is based on HTRF® technology (Homogeneous Time-Resolved Fluorescence). The method is a competitive immunoassay between native cAMP produced by cells and the cAMP labeled with the fluorophore d2. The tracer binding is quantified by a Mab anti-cAMP labeled with Eu3+ TBP-NHS Cryptate (supplied as part of the assay kit). The specific signal (i.e. energy transfer) is inversely proportional to the concentration of cAMP in the standard or sample.
Human CB1R (Cannabinoid receptor 1) was stably transfected in HEK-293 cells (DiscoveRx, cat: 93-0200C1). Human CB2R (Cannabinoid receptor 2) was stably transfected in HEK-293 cells (DiscoveRx, cat: 93-0201C1). Cell cultures were maintained in media: DMEM (Invitrogen Cat#12430-054) supplemented with 10% HI FBS (Invitrogen Cat#16140-071), 1% L-glutamine (Invitrogen Cat#25030-081), 0.2 mg/ml Hygromycin B (Invitrogen Cat#10687-010), 600 μg/mL G418 (Invitrogen Cat#10131-035), and 1× Penn/Strep (Invitrogen 15140-122). After cell expansion, aliquots were cryo-stored in media containing 5% DMSO (Pierce Cat#20684).
One day prior to experiments media was warmed to 37° C. and the cryo-stored cells were thawed in a 37° C. water bath. The cells were then added to media (10× volume) and the mixture was centrifuged at 1000 RPM for 5 min. The supernate was removed and the cells were re-suspended in media. A sample of the cell suspension was evaluated on a Cedex XS automated cell counter (Innovatis Systems) to determine viable cells/ml. Additional media was added to the cells to achieve a final cell density of 4E5 cells/mL. The cells were then plated into 384 well PDL white solid bottom plates (Greiner, Cat#781945) at 20 μL per well using a Multidrop (Thermo Scientific). Cells were removed from Row P (location of cAMP standards). Two columns of cells were plated into a clear bottom 384 well PDL coated plate (Greiner, Cat#781944) to view confluence the day of the assay. The cell plates were lidded and stored for 15 minutes in a hood, then transferred to an incubator (37° C., 5% CO2, 95% humidity) overnight.
DMSO was added to all wells of 384 well V bottom polystyrene plate (Greiner, Cat#781280) except to columns 1 and 13, rows O and P and wells M13-M23 and N13-N23. Test compounds (60 μL, 10 mM) were added to Column 1 and 13 (A1 through N1 and A13 through L13). Test compounds were serially diluted 1/3 by transferring and mixing 20 μl sample with 40 μL DMSO.
DMSO (40 μL) was added to wells of 384 well V bottom polystyrene plate: O2 through O11, M14 through M23, N14 through N23, and O14 through O23. AM630 (also known as [6-iodo-2-methyl-1-[2-(4-morpholinyl)ethyl]-1H-indol-3-yl](4-methoxyphenyl)-methanone, Cayman Chemical, Cat#10006974) (60 μL, 10 mM) was added to O1; and 1-(2,4-dichlorophenyl)-7-[(4-fluorophenyl)methylene]-4,5,6,7-tetrahydro-N-1-piperidinyl-1H-indazole-3-carboxamide (60 μL, 10 mM) was added to N13. The control was serially diluted 1/3 by transferring and mixing 20 μl sample with 40 μL DMSO. This process resulted 11 doses per control, 10 mM to […].
Cells plated the day prior to the assay in clear bottom plates were viewed on an inverse microscope to ensure confluency in the range of 60-75%. […]

T1 sequence (P34972 whole entry): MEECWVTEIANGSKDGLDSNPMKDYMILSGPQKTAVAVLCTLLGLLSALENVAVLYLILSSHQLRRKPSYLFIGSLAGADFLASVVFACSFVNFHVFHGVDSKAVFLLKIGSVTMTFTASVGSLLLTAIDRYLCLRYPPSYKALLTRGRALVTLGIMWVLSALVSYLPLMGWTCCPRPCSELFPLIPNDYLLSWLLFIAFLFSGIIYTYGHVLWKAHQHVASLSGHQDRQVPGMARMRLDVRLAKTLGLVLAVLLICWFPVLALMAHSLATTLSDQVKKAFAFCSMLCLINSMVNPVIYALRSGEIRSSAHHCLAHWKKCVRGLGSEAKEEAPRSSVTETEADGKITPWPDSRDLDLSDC

EC50 [µM]	SMILES
> 10	O=c1cc(NC2CCN(CC(F)(F)F)CC2)c2cc(C(c3ccc(Cl)cc3)c3ccc(Cl)cc3)ccc2[nH]1 [Compound #77, 6-(bis(4-chlorophenyl)methyl)-4-((1-(2,2,2-trifluoroethyl)piperidin-4-yl)amino)quinolin-2(1H)-one]
> 10	CCOC(=O)CS(=O)(=O)N1CCC(Nc2cc(=O)[nH]c3ccc(C(c4ccc(Cl)cc4)c4ccc(Cl)cc4)cc23)CC1 [Compound 102, ethyl 2-((4-((6-(bis(4-chlorophenyl)methyl)-2-oxo-1,2-dihydroquinolin-4-yl)amino)piperidin-1-yl)sulfonyl)acetate]
> 10	CCS(=O)(=O)N1CCC(Nc2cc(=O)[nH]c3ccc(C(c4ccc(Cl)cc4)c4ccc(Cl)cc4)cc23)CC1 [Compound #56, 6-(bis(4-chlorophenyl)methyl)-4-((1-(ethylsulfonyl)piperidin-4-yl)amino)quinolin-2(1H)-one]
> 10	COCCn1c(=O)cc(NC2CCN(S(=O)(=O)C(F)(F)F)CC2)c2cc(C(c3ccc(Cl)cc3)c3ccc(Cl)cc3)ccc21 [Compound 110, 6-(bis(4-chlorophenyl)methyl)-1-(2-methoxyethyl)-4-((1-((trifluoromethyl)sulfonyl)piperidin-4-yl)amino)quinolin-2(1H)-one]
> 10	O=C(O)CN1CCC(Nc2cc(=O)[nH]c3ccc(C(c4ccc(Cl)cc4)c4ccc(Cl)cc4)cc23)CC1 [Compound 117, [4-({6-[Bis(4-chlorophenyl)methyl]-2-oxo-1,2-dihydroquinolin-4-yl}amino)piperidin-1-yl]acetic acid]
> 10	O=c1cc(NCc2ccc(C(F)(F)F)nc2)c2cc(C(c3ccc(Cl)cc3)c3ccc(Cl)cc3)ccc2[nH]1 [Compound #70, 6-(bis(4-chlorophenyl)methyl)-4-(((6-(trifluoromethyl)pyridin-3-yl)methyl)amino)quinolin-2(1H)-one]
> 10	COCCOc1ccc(Nc2cc(=O)[nH]c3ccc(C(c4ccc(Cl)cc4)c4ccc(Cl)cc4)cc23)cc1 [Compound 94, 6-[Bis(4-chlorophenyl)methyl]-4-{[4-(2-methoxyethoxy)phenyl]amino}quinolin-2(1H)-one]
> 10	CC(C)(C)OC(=O)COc1ccc(Nc2cc(=O)[nH]c3ccc(C(c4ccc(Cl)cc4)c4ccc(Cl)cc4)cc23)cc1 [Compound 105, tert-butyl 2-(4-((6-(bis(4-chlorophenyl)methyl)-2-oxo-1,2-dihydroquinolin-4-yl)amino)phenoxy)acetate]
> 10	O=c1cc(NC2CCCCC2)c2cc(C(c3ccc(Cl)cc3)c3ccc(Cl)cc3)ccc2[nH]1 [Compound #71, 6-(bis(4-chlorophenyl)methyl)-4-(cyclohexylamino)quinolin-2(1H)-one]
> 10	O=c1cc(Nc2cccc(C(F)(F)F)c2)c2cc(C(c3ccc(Cl)cc3)c3ccc(Cl)cc3)ccc2[nH]1 [Compound 75, 6-[Bis(4-chlorophenyl)methyl]-4-{[3-(trifluoromethyl)phenyl]amino}quinolin-2(1H)-one]
> 10	NC(=O)CCC(=O)N1CCC(Nc2cc(=O)[nH]c3ccc(C(c4ccc(Cl)cc4)c4ccc(Cl)cc4)cc23)CC1 [Compound 112, 4-[4-({6-[Bis(4-chlorophenyl)methyl]-2-oxo-1,2-dihydroquinolin-4-yl}amino)piperidin-1-yl]-4-oxobutanamide]
> 10	O=C(O)CC(=O)N1CCC(Nc2cc(=O)[nH]c3ccc(C(c4ccc(Cl)cc4)c4ccc(Cl)cc4)cc23)CC1 [Compound 96, 3-[4-({6-[Bis(4-chlorophenyl)methyl]-2-oxo-1,2-dihydroquinolin-4-yl}amino)piperidin-1-yl]-3-oxopropanoic acid]
> 10	CC(C)(C)OC(=O)CCN1CCC(Nc2cc(=O)[nH]c3ccc(C(c4ccc(Cl)cc4)c4ccc(Cl)cc4)cc23)CC1 [Compound 114, tert-butyl 3-(4-((6-(bis(4-chlorophenyl)methyl)-2-oxo-1,2-dihydroquinolin-4-yl)amino)piperidin-1-yl)propanoate]
> 10	NC(=O)c1ccc(Nc2cc(=O)[nH]c3ccc(C(c4ccc(Cl)cc4)c4ccc(Cl)cc4)cc23)cc1 [Compound 87, 4-({6-[Bis(4-chlorophenyl)methyl]-2-oxo-1,2-dihydroquinolin-4-yl}amino)benzamide]
> 10	NCCCCNc1cc(C(c2ccc(Cl)cc2)c2ccc(Cl)cc2)cc2c(NC3CCN(S(=O)(=O)C(F)(F)F)CC3)cc(=O)[nH]c12 [Compound 141, 8-((4-aminobutyl)amino)-6-(bis(4-chlorophenyl)methyl)-4-((1-((trifluoromethyl)sulfonyl)piperidin-4-yl)amino)quinolin-2(1H)-one]
> 10	COC(=O)Cc1ccc(Nc2cc(=O)[nH]c3ccc(C(c4ccc(Cl)cc4)c4ccc(Cl)cc4)cc23)cc1 [Compound 124, Methyl [4-({6-[bis(4-chlorophenyl)methyl]-2-oxo-1,2-dihydroquinolin-4-yl}amino)phenyl]acetate]
> 10	O=c1cc(NC2CCN(S(=O)(=O)N3CCCC3)CC2)c2cc(C(c3ccc(Cl)cc3)c3ccc(Cl)cc3)ccc2[nH]1 [Compound #81, 6-(bis(4-chlorophenyl)methyl)-4-((1-(pyrrolidin-1-ylsulfonyl)piperidin-4-yl)amino)quinolin-2(1H)-one]
> 10	O=c1cc(NC2CCN(c3ccccc3)CC2)c2cc(C(c3ccc(Cl)cc3)c3ccc(Cl)cc3)ccc2[nH]1 [Compound #60, 6-[bis(4-chlorophenyl)methyl]-4-[(1-phenylpiperidin-4-yl)amino]quinolin-2-ol]
> 10	CCOC(=O)CCCNc1cc(C(c2ccc(Cl)cc2)c2ccc(Cl)cc2)cc2c(NC3CCN(S(=O)(=O)C(F)(F)F)CC3)cc(=O)[nH]c12 [Compound 104, Ethyl 4-({6-[bis(4-chlorophenyl)methyl]-2-oxo-4-({1-[(trifluoromethyl)sulfonyl]piperidin-4-yl}amino)-1,2-dihydroquinolin-8-yl}amino)butanoate]
> 10	NC(=O)CCCOc1ccc(Nc2cc(=O)[nH]c3ccc(C(c4ccc(Cl)cc4)c4ccc(Cl)cc4)cc23)cc1 [Compound 123, 4-[4-({6-[Bis(4-chlorophenyl)methyl]-2-oxo-1,2-dihydroquinolin-4-yl}amino)phenoxy]butanamide]
> 10	O=C(O)CCC(=O)N1CCC(Nc2cc(=O)[nH]c3ccc(C(c4ccc(Cl)cc4)c4ccc(Cl)cc4)cc23)CC1 [Compound 98, 4-(4-((6-(bis(4-chlorophenyl)methyl)-2-oxo-1,2-dihydroquinolin-4-yl)amino)piperidin-1-yl)-4-oxobutanoic acid]
> 10	COC(=O)c1ccc(Nc2cc(=O)[nH]c3ccc(C(c4ccc(Cl)cc4)c4ccc(Cl)cc4)cc23)cc1 [Compound 85, Methyl 4-({6-[bis(4-chlorophenyl)methyl]-2-oxo-1,2-dihydroquinolin-4-yl}amino)benzoate]
> 10	O=c1cc(NCc2ccc(C(F)(F)F)cn2)c2cc(C(c3ccc(Cl)cc3)c3ccc(Cl)cc3)ccc2[nH]1 [Compound 78, 6-[Bis(4-chlorophenyl)methyl]-4-({[5-(trifluoromethyl)pyridin-2-yl]methyl}amino)quinolin-2(1H)-one]
> 10	O=C(O)Cc1ccc(Nc2cc(=O)[nH]c3ccc(C(c4ccc(Cl)cc4)c4ccc(Cl)cc4)cc23)cc1 [Compound 125, [4-({6-[Bis(4-chlorophenyl)methyl]-2-oxo-1,2-dihydroquinolin-4-yl}amino)phenyl]acetic acid]
> 10	O=c1cc(NCc2ccc(C(F)(F)F)cc2)c2cc(C(c3ccc(Cl)cc3)c3ccc(Cl)cc3)ccc2[nH]1 [Compound 58, 6-[Bis(4-chlorophenyl)methyl]-4-{[4-(trifluoromethyl)benzyl]amino}quinolin-2(1H)-one]
